Where two headings read alike, the source gives them in different places.
Assays:
[1] = biological target: T1, complement C5a receptor 1 (C5aR1) (Homo sapiens, UniProt P21730); test: β-arrestin recruitment via C5aR1 activation in live CHO-K1 cells (PathHunter), antagonist mode; format: cell-based; conditions: antagonist mode; recombinant hC5a (EC90) as competing natural agonist; live CHO-K1 cells; read-out: [Antagonist] B-arrestin2 recruitment: Average IC50
T1 construct: β-galactosidase fragment (PathHunter enzyme complementation); host or cells: CHO-K1 (PathHunter CHO-K1 C5aR1 β-arrestin cell line)
T1 sequence (P21730 1-350): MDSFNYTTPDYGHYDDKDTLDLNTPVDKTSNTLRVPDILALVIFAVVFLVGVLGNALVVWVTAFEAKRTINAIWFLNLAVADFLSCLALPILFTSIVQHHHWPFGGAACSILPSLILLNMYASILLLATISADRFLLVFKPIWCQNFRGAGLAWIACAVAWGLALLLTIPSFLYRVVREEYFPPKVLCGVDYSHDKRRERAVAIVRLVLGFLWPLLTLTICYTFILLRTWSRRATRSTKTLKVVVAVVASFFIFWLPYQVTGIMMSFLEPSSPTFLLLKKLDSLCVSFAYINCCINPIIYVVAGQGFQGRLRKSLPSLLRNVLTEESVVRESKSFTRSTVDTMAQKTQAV
How it was run: (§1)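 β-arrestin recruitment to C5aR1 in CHO-K1 cells is detected by enzyme-fragment complementation. Antagonism is measured against recombinant hC5a at its EC90; agonism is measured with compound alone. Potencies are grouped into IC50 categories.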

[2] = biological target: T1, complement C5a receptor 1 (C5aR1); test: β-arrestin recruitment via C5aR1 activation in live CHO-K1 cells (PathHunter), agonist mode; format: cell-based
How it was run: as §1

SMILES | IC50 [1] [nM] | [Agonist] B-arrestin2 recruitment: Average EC50 (nM) ([2]; at 10 μM) | [Agonist] B-arrestin2 recruitment: Average EC50 (nM) [2]
Cc1cnc2cc([C@H]3CC[C@H](c4nn(C)c5ccccc54)CC3)c(=O)n(Cc3ncccc3C(F)(F)F)c2n1 [compound 191, 3-Methyl-7-((1r,4r)-4-(1-methyl-1H-indazol-3-yl)cyclohexyl)-5-((3-(trifluoromethyl)pyridin-2-yl)methyl)pyrido[2,3-b]pyrazin-6(5H)-one] | 5000 to 100000 | Non-Active at 10 μM | 
Cc1cnc2cc([C@H]3CC[C@H](c4ccc5c(cnn5C)c4)CC3)c(=O)n(Cc3ncccc3C(F)(F)F)c2n1 [compound 192, 3-Methyl-7-((1r,4r)-4-(1-methyl-1H-indazol-5-yl)cyclohexyl)-5-((3-(trifluoromethyl)pyridin-2-yl)methyl)pyrido[2,3-b]pyrazin-6(5H)-one] | 500 to 5000 | Non-Active at 10 μM | 
Cc1ccc2cc([C@H]3CC[C@H](c4c(C)cccc4F)CC3)c(=O)n(Cc3ncccc3C(F)F)c2n1 [compound 193, 1-((3-(Difluoromethyl)pyridin-2-yl)methyl)-3-((1r,4r)-4-(2-fluoro-6-methylphenyl)cyclohexyl)-7-methyl-1,8-naphthyridin-2(1H)-one] | < 500 |  | Non-Active
Cc1ccc2cc([C@H]3CC[C@H](c4c(C)cccc4F)CC3)c(=O)n(Cc3nccnc3C(F)(F)F)c2n1 [compound 194, 3-((1r,4r)-4-(2-Fluoro-6-methylphenyl)cyclohexyl)-7-methyl-1-((3-(trifluoromethyl)pyrazin-2-yl)methyl)-1,8-naphthyridin-2(1H)-one] | < 500 |  | Non-Active
Cc1ccc2cc([C@H]3CC[C@H](c4c(C)cccc4F)CC3)c(=O)n(Cc3ncccc3OC(F)F)c2n1 [compound 195, 1-((3-(Difluoromethoxy)pyridin-2-yl)methyl)-3-((1r,4r)-4-(2-fluoro-6-methylphenyl)cyclohexyl)-7-methyl-1,8-naphthyridin-2(1H)-one] | < 500 |  | Non-Active
Cc1ccc2cc([C@H]3CC[C@H](c4c(C)cccc4F)CC3)c(=O)n(Cc3ncccc3OC(F)(F)F)c2n1 [compound 196, 3-((1r,4r)-4-(2-Fluoro-6-methylphenyl)cyclohexyl)-7-methyl-1-((3-(trifluoromethoxy)pyridin-2-yl)methyl)-1,8-naphthyridin-2(1H)-one] | < 500 |  | Non-Active
Cc1ncc2cc([C@H]3CC[C@H](c4c(C)cccc4F)CC3)c(=O)n(Cc3ncccc3OC(F)(F)F)c2n1 [compound 198, 6-((1r,4r)-4-(2-Fluoro-6-methylphenyl)cyclohexyl)-2-methyl-8-((3-(trifluoromethoxy)pyridin-2-yl)methyl)pyrido[2,3-d]pyrimidin-7(8H)-one] | < 500 |  | Non-Active
COc1cccnc1Cn1c(=O)c([C@H]2CC[C@H](c3c(C)cccc3F)CC2)cc2ncc(C)nc21 [compound 199, 7-((1r,4r)-4-(2-Fluoro-6-methylphenyl)cyclohexyl)-5-((3-methoxypyridin-2-yl)methyl)-3-methylpyrido[2,3-b]pyrazin-6(5H)-one] | < 500 |  | Non-Active
CCc1cnc2cc([C@H]3CC[C@H](c4c(C)cccc4F)CC3)c(=O)n(Cc3ncccc3C(F)(F)F)c2n1 [compound 201, 3-Ethyl-7-((1r,4r)-4-(2-fluoro-6-methylphenyl)cyclohexyl)-5-((3-(trifluoromethyl)pyridin-2-yl)methyl)pyrido[2,3-b]pyrazin-6(5H)-one] | < 500 | Non-Active at 10 μM | 
Cc1cnc2cc([C@H]3CC[C@H](c4ccccc4C(F)(F)F)CC3)c(=O)n(Cc3ncccc3C(F)(F)F)c2n1 [compound 202, 3-Methyl-7-((1r,4r)-4-(2-(trifluoromethyl)phenyl)cyclohexyl)-5-((3-(trifluoromethyl)pyridin-2-yl)methyl)pyrido[2,3-b]pyrazin-6(5H)-one] | < 500 | Non-Active at 10 μM | 
CCc1cnc2cc([C@H]3CC[C@H](c4c(C)cccc4F)CC3)c(=O)n(Cc3ncccc3OC(F)(F)F)c2n1 [compound 204, 3-Ethyl-7-((1r,4r)-4-(2-fluoro-6-methylphenyl)cyclohexyl)-5-((3-(trifluoromethoxy)pyridin-2-yl)methyl)pyrido[2,3-b]pyrazin-6(5H)-one] | < 500 | Non-Active at 10 μM | 
Cc1ccc2cc([C@H]3CC[C@H](c4c(C)cccc4F)CC3)c(=O)n(Cc3nccnc3C)c2n1 [compound 206, 3-((1r,4r)-4-(2-fluoro-6-methylphenyl)cyclohexyl)-7-methyl-1-((3-methylpyrazin-2-yl)methyl)-1,8-naphthyridin-2(1H)-one] | 500 to 5000 | Non-Active at 10 μM | 
Cc1cnc2cc([C@H]3CC[C@H](c4c(F)ccc5c4cnn5C)CC3)c(=O)n(Cc3ncccc3C(F)(F)F)c2n1 [compound 207, 7-((1r,4r)-4-(5-Fluoro-1-methyl-1H-indazol-4-yl)cyclohexyl)-3-methyl-5-((3-(trifluoromethyl)pyridin-2-yl)methyl)pyrido[2,3-b]pyrazin-6(5H)-one] | 5000 to 100000 | Non-Active at 10 μM | 
Cc1cnc2cc([C@H]3CC[C@H](c4c(F)cccc4F)CC3)c(=O)n(Cc3ncccc3OC(F)(F)F)c2n1 [compound 209, 7-((1r,4r)-4-(2,6-Difluorophenyl)cyclohexyl)-3-methyl-5-((3-(trifluoromethoxy)pyridin-2-yl)methyl)pyrido[2,3-b]pyrazin-6(5H)-one] | < 500 | Non-Active at 10 μM | 
Cc1ccc2cc([C@H]3CC[C@H](c4c(C)cccc4F)CC3)c(=O)n(Cc3nccnc3C(F)F)c2n1 [compound 210, 1-((3-(Difluoromethyl)pyrazin-2-yl)methyl)-3-((1r,4r)-4-(2-fluoro-6-methylphenyl)cyclohexyl)-7-methyl-1,8-naphthyridin-2(1H)-one] | < 500 | Non-Active at 10 μM | 
CCc1cnc2c(cc([C@H]3CC[C@H](c4c(C)cccc4F)CC3)c(=O)n2Cc2ncccc2C(F)(F)F)n1 [compound 211, 2-Ethyl-7-((1r,4r)-4-(2-fluoro-6-methylphenyl)cyclohexyl)-5-((3-(trifluoromethyl)pyridin-2-yl)methyl)pyrido[2,3-b]pyrazin-6(5H)-one] | < 500 | Non-Active at 10 μM | 
Cc1cnc2cc([C@H]3CC[C@H](c4c(C)cccc4F)CC3)c(=O)n(Cc3ncccc3OC(F)F)c2n1 [compound 212, 5-((3-(Difluoromethoxy)pyridin-2-yl)methyl)-7-((1r,4r)-4-(2-fluoro-6-methylphenyl)cyclohexyl)-3-methylpyrido[2,3-b]pyrazin-6(5H)-one] | < 500 | Non-Active at 10 μM | 
Cc1cnc2cc([C@H]3CC[C@H](c4c(C)cccc4F)CC3)c(=O)n(Cc3ncccc3OCC(F)(F)F)c2n1 [compound 213, 7-((1r,4r)-4-(2-Fluoro-6-methylphenyl)cyclohexyl)-3-methyl-5-((3-(2,2,2-trifluoroethoxy)pyridin-2-yl)methyl)pyrido[2,3-b]pyrazin-6(5H)-one] | < 500 | Non-Active at 10 μM | 
COc1cccnc1Cn1c(=O)c([C@H]2CC[C@H](c3c(C)cccc3F)CC2)cc2nc(C(F)(F)F)cnc21 [compound 214, 7-((1r,4r)-4-(2-Fluoro-6-methylphenyl)cyclohexyl)-5-((3-methoxypyridin-2-yl)methyl)-2-(trifluoromethyl)pyrido[2,3-b]pyrazin-6(5H)-one] | 5000 to 100000 | Non-Active at 10 μM | 
CCc1cnc2c(cc([C@H]3CC[C@H](c4c(C)cccc4F)CC3)c(=O)n2Cc2ncccc2OC(F)(F)F)n1 [compound 215, 2-Ethyl-7-((1r,4r)-4-(2-fluoro-6-methylphenyl)cyclohexyl)-5-((3-(trifluoromethoxy)pyridin-2-yl)methyl)pyrido[2,3-b]pyrazin-6(5H)-one] | < 500 | Non-Active at 10 μM | 
Cc1cnc2cc([C@H]3CC[C@H](c4c(F)cccc4C(F)(F)F)CC3)c(=O)n(Cc3ncccc3OC(F)(F)F)c2n1 [compound 216, 7-((1r,4r)-4-(2-Fluoro-6-(trifluoromethyl)phenyl)cyclohexyl)-3-methyl-5-((3-(trifluoromethoxy)pyridin-2-yl)methyl)pyrido[2,3-b]pyrazin-6(5H)-one] | 500 to 5000 | Non-Active at 10 μM | 
Cc1cnc2cc([C@H]3CC[C@H](c4c(F)ccc5cnn(C)c54)CC3)c(=O)n(Cc3ncccc3C(F)(F)F)c2n1 [compound 217, 3-Methyl-7-[(1r,4r)-4-(6-fluoro-1-methylindazol-7-yl)cyclohexyl]-5-{[3-(trifluoromethyl)pyridin-2-yl]methyl}pyrido[2,3-b]pyrazin-6-one] | 5000 to 100000 | Non-Active at 10 μM | 
